The source of these data is ChEMBL document CHEMBL1201862, “PubChem BioAssay data set” (2004).

Test [1] has as its target T1, Heat shock factor protein 1 (Mus musculus, UniProt P38532).
T1 sequence (P38532 whole entry): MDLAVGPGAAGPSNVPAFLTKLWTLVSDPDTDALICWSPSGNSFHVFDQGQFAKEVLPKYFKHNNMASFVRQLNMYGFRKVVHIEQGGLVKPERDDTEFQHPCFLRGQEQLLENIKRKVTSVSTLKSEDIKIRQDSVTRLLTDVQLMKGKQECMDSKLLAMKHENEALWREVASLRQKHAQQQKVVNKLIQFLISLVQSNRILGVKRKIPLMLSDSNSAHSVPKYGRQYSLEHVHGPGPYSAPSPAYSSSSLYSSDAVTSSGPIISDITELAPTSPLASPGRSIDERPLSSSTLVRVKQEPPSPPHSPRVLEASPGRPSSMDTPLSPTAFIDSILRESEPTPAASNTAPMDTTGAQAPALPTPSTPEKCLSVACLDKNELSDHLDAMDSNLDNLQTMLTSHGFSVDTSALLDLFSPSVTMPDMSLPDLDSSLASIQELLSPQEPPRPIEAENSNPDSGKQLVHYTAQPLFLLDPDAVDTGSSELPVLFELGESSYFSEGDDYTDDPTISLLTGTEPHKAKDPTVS
Kind of test: inhibition of MG132-induced HSE-luciferase signal, confirmation, cell-based, NIH3T3, luminescence, dose retest (AID 2382).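 Further: NIH3T3 fibroblasts with HSF1-driven luciferase reporter stressed by proteasome inhibitor MG132; luminescence from HSF1-driven luciferase expression after 8 hours of MG132 stress.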 It is filed as functional.

A short description of test [2]: growth induction of Burl-1 ts yeast mutant, dose response, counter-screen for SUMOylation pathway inhibitor project, whole organism, S. cerevisiae, luminescence (AID 463199). It is filed as functional.
Test [3] relates to Jurkat. Kind of test: SAR Analysis of small molecule inhibitors of T-cell specific antigen receptor-induced NF-kB activation in a Jurkat cell line using a luminescence assay - Set 2. [Related pubchem assays (depositor defined):AID435003, AID435012, AID465]. It is filed as functional, cell-based. Conditions: Homo sapiens.
Test [4] has as its system HEK293. Kind of test: SAR Analysis of small molecule inhibitors of T-cell specific antigen receptor-induced NF-kB activation in a HEK-293T cell line using a luminescence assay - Set 2. [Related pubchem assays (depositor defined):AID435003, AID435012, AID489026]. It counts as functional, cell-based. Conditions: Homo sapiens.
Test [5] concerns HEK293. Kind of test: cytotoxicity in HEK293T NF-kB-Luc cells, SAR follow-up, cytotoxicity control for NF-kB activator project, cell-based, resazurin fluorescence (AID 493251). It is filed as functional. Conditions: Homo sapiens. In general terms: The colour change of resazurin is a common sign of viable cells or microbes.
A short description of test [6]: Luminescence Cell-Based Dose Retest to Confirm Inhibitors of Cancer Stem Cells. [Related pubchem assays (depositor defined):AID2717, AID2721]. It is filed as functional. The conditions noted are these: Homo sapiens.
The nature of test [7]: cytotoxicity in HMLE control line with eGFP shRNA, dose response, counter-screen for HMLE_sh_ECad selective toxicity project, cell-based, HMLE_sh_eGFP, luminescence (AID 463074).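 Further: HMLE human mammary epithelial cells expressing control shRNA against eGFP.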 It is filed as functional, Homo sapiens. For orientation: The purpose of a counterscreen is to sort out artefacts and off-target activity.
Test [8] addresses T2, Short transient receptor potential channel 4 (Mus musculus, UniProt Q9QUQ5).
T2 sequence (Q9QUQ5 whole entry): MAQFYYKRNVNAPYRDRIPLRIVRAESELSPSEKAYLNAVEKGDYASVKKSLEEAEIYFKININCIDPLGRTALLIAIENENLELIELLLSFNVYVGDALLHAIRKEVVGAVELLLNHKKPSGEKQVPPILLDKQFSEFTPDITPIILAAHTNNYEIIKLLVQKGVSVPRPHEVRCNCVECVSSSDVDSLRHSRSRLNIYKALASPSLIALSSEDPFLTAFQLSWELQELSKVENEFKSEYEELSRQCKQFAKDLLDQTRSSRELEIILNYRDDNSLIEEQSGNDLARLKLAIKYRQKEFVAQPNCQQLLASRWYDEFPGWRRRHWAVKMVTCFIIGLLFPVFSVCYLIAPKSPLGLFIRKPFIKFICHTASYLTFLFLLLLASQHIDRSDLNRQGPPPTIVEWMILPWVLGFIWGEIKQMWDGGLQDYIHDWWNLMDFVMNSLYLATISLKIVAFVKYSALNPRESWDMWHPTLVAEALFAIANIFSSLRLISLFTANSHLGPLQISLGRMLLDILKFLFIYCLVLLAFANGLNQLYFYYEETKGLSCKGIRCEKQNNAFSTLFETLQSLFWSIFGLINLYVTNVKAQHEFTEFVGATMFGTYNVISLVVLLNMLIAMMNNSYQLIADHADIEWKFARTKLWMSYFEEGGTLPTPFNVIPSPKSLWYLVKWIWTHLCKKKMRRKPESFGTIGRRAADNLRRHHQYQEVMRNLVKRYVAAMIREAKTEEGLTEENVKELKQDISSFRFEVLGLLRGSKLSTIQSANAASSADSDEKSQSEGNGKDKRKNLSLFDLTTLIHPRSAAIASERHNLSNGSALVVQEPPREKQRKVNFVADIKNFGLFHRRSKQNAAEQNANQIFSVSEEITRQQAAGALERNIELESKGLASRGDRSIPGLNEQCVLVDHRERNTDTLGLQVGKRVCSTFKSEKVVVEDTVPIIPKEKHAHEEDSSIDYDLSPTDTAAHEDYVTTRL
Kind of test: SAR Analysis for the identification of selective inhibits of the transient receptor potential cation channel C4 (TRPC4): Automated Electrophysiology. [Related pubchem assays (depositor defined):AID2256]. It is filed as functional.

In test [9] the target is T2, Short transient receptor potential channel 4. Put plainly: mouse TRPC4 channel inhibitors, dose response, cell-based, HEK293 TRPC4/mu-opioid, Fluo-4 calcium (AID 434942).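 Further: potency of inhibitors blocking the TRPC4 calcium response.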 It counts as functional.
Test [10] relates to Jurkat. Kind of test: SAR Analysis of small molecule inhibitors of […] specific antigen receptor-induced NF-kB activation in a Jurkat cell line using a luminescence assay - Set 3. [Related pubchem assays (depositor defined):AID435022, AID435025, AID465]. It is filed as functional, cell-based. The conditions noted are these: Homo sapiens.
Test [11] relates to HEK293. Put plainly: SAR Analysis of small molecule inhibitors of B-cell specific antigen receptor-induced NF-kB activation in a HEK-293T cell line using a luminescence assay - Set 2. [Related pubchem assays (depositor defined):AID435022, AID435025, AID489021]. It is filed as functional, cell-based. Conditions: Homo sapiens.
Test [12] has as its system HEK293. Kind of test: inhibitors of LMP1-driven NF-kB reporter, dose response, cell-based, HEK293, luciferase, cherry-pick (AID 588343). The conditions noted are these: Homo sapiens. It is filed as functional.
Test [13] deals with Latent membrane protein 1 (Human herpesvirus 4 (strain B95-8), UniProt P03230). Kind of test: TES1-eGFP NF-kB reporter inhibition versus Tet-On dsRED, dose response, selectivity assay for LMP1 NF-kB inhibitor project, imaging, HEK293T, dual-color eGFP/dsRED, cherry-picks (AID 588398). It is filed as functional, cell-based.
Test [14] in a line: NIH-3T3 fibroblast cytotoxicity, dose response, cytotoxicity control, cell-based, fluorescence, Alamar Blue, secondary assay (AID 2327).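 Further: NIH-3T3 mouse fibroblasts cultured with fluconazole at 8 µg/mL.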 It counts as functional.
The nature of test [15]: C. albicans growth with fluconazole, confirmation, fluorescence, retest (AID 2467). It counts as functional, cell-based.

Activity calls are given as the source filed them.

Sequence of Latent membrane protein 1 (P03230 whole entry): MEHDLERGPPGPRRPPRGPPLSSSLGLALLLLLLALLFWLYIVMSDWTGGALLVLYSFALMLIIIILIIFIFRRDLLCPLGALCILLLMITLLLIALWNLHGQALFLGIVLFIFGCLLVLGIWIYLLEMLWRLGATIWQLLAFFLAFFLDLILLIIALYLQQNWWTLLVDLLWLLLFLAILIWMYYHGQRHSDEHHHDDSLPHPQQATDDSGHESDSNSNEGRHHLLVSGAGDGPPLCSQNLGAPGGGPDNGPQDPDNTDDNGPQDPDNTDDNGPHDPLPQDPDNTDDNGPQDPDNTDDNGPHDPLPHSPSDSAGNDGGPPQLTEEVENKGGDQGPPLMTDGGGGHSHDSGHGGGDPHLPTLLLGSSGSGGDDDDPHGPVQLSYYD

With `O=C(c1ccc([N+](=O)[O-])cc1)N1CCN(c2ncc(Br)cn2)CC1`, the EC50 (commonly the concentration that produces a half-maximal response) in test [1] is > 195 µM (not active). Besides, the AC50 (in general, the concentration giving half of the maximal activity seen) in test [2] is 72.3 µM (active).

Consider `COc1ccc(C(=O)Nc2ccc(NC(=O)c3cc4ccccc4o3)cc2)cc1[N+](=O)[O-]`, for which the IC50 (as a rule, the midpoint of a concentration-inhibition curve) with Jurkat [3] is 76.7 µM (inactive); in the test with HEK293 [4], > 80 µM (inactive); in the test with HEK293 [5], > 80 µM (inactive).

As for `O=C1Nc2cc(C(=O)N3CCc4ccccc4C3)ccc2S/C1=C\c1ccccc1`, the AC50 in test [6] is 3.43 µM (active); in test [7] it was 55.5 µM (active).

Turning to `O=C(Cc1ccccc1)Nc1ccccc1Sc1ccccc1`, the IC50 in test [8] was 38.7 µM (active). Further, the EC50 in test [9] is 1.88 µM (active).

For the molecule `CCCNC(=O)CSCc1nc(-c2ccc(OCC)cc2)oc1C`, the IC50 was > 80 µM (inactive) with Jurkat [10], 74.7 µM (inactive) with HEK293 [11] and > 80 µM (inactive) in the test on HEK293 [5].

As for `CCOC(=O)c1c(-n2cccc2)sc2c1CCCC2=O`, the AC50 in the test on HEK293 [12] was 12.3 µM (active); in test [13], 4.1 µM (active).

Turning to `COc1ccc(OC2C(=O)N(Cc3ccc4c(c3)OCO4)C2c2sccc2C)cc1` (centres undefined), the concentration giving a half-maximal response (EC50) is > 195 µM (not active) in [1], > 160 µM (inactive) in test [14] and > 38 µM (not active) in test [15]. For the same molecule, the figures for the AC50 in test [6] and in test [7] were 29.8 µM (active) and 40.4 µM (active), respectively.
